Source: PubChem BioAssay AID1645868 (Buhrlage Lab, Dana-Farber Cancer Institute and Novartis …, 2021)
Active and inactive are the calls of the source.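 Rule for the calls: active = maximal percent inhibition of the deubiquitinase OTUD3 of at least 30% across the tested doses; inactive = the rest.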

Target: OTU domain-containing protein 3 (Homo sapiens) (UniProt Q5T2D3)
Assay: Validation of screening hits, potency titration, in vitro enzymatic, OTU domain-containing protein 3 DUB inhibitors (AID 1645868)
Conditions: purified OTUD3, ubiquitin-rhodamine cleavage fluorescence, 2 h

OTU domain-containing protein 3 (Homo sapiens), sequence (Q5T2D3 whole entry, looked up, the tested form may be a part): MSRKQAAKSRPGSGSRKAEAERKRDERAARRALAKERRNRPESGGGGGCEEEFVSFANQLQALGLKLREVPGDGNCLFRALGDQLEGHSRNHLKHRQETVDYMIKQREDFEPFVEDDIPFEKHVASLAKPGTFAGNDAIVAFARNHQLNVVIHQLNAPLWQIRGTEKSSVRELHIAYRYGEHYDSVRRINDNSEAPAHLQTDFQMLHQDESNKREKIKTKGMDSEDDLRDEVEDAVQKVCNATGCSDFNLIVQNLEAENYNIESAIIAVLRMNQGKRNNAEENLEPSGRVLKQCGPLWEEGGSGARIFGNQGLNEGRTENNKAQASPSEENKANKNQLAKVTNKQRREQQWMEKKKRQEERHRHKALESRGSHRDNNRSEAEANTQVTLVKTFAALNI

Structure (SMILES)	IC50
Cc1ccc(C)c(S(=O)(=O)N2CCC3(CC2)NC(=O)c2ccccc2N3)c1	> 50 µM (inactive)
c1ccc2c(c1)ccc1nnc(-c3ccc4c(c3)OCO4)n12	> 50 µM (inactive)
CCOc1ccc(CCNC(=O)CCC(=O)Nc2ccc3nc(N4CCN(C)CC4)cc(C)c3c2)cc1OCC	> 50 µM (inactive)
COc1cc(Cn2cnc3c([nH]c4ccc(Br)cc43)c2=O)cc(OC)c1	12.7 µM
COc1ccc(-c2cc(-c3nnc4n3CCCCC4)n(-c3ccccc3)n2)cc1	> 50 µM (inactive)
Cc1nc(C(=O)N[C@@H](C)C(=O)NCc2ccc3c(c2)OCO3)cc2c1[nH]c1ccccc12	37.8 µM
N#Cc1c(SCCO)nc(N2CCCC2)c2c1CCCC2	> 50 µM (inactive)
COC(=O)C1C(c2ccc(Cl)cc2Cl)C2(C(=O)c3ccccc3C2=O)C2C=Cc3ccccc3N12 (stereo unspecified)	> 50 µM (inactive)
CCCC(O)CCCCCCCc1cc(O)cc(O)c1C(=O)OC(CCC)CCCCCCCc1cc(O)cc(O)c1 (stereo unspecified)	36 µM
Cc1cc(NC(=O)Cn2c(=O)n(CCCCC(=O)NCc3ccco3)c(=O)c3ccccc32)ccc1Br	3.48 µM
NC(=O)c1ccc(NC(=O)Cc2cc(-c3ccc(Cl)cc3)on2)cc1	> 50 µM (inactive)
Cc1cc(C#N)c2c(C)ccc(C(C)C)cc1-2	> 50 µM (inactive)
O=C(CCSc1ccc(Cl)cc1)c1cccs1	21.5 µM
C=C(NC(=O)C(=C)NC(=O)c1csc(-c2ccc3c(n2)-c2csc(n2)-c2csc(n2)C(C(C)C2CO2)NC(=O)C(Cc2ccc(O)cc2)NC(=O)c2csc(n2)C(C(O)c2ccccc2)NC(=O)c2nc(sc2C)C(CC(N)=O)NC(=O)c2csc-3n2)n1)C(=O)O (stereo unspecified)	43.6 µM
Cc1cccc(NC(=O)Cn2cnc(-c3noc(-c4ccccc4)n3)c2)c1C	2.42 µM
COc1ccccc1-c1nc(-c2nnn(Cc3ccc(C)cc3)c2C)no1	> 50 µM (inactive)
Cc1nn(Cc2ccccc2)c(C)c1C(=O)NC1CCCc2ccccc21 (stereo unspecified)	> 50 µM (inactive)
COc1ccc(CCNc2c(-c3ccccc3O)nc3cnccn23)cc1OC	> 50 µM (inactive)
Fc1ccc(Oc2nc(CN3CCOCC3)nc3sc4c(c23)CCCC4)c(Cl)c1	> 50 µM (inactive)
Cc1sc2nc(CN3CCCC3)nc(NCCc3ccc(Cl)cc3)c2c1C	> 50 µM (inactive)
CC(=O)c1sc(NC(=O)c2ccccc2-c2ccc(C(F)(F)F)cc2)nc1C	41.7 µM
O=C(Cn1c(=O)c2sccc2n(Cc2ccc([N+](=O)[O-])cc2)c1=O)NCCc1ccccc1	22.4 µM
CCc1cc2c(=O)[nH]c(Cc3ccc(OC)cc3)nc2s1	33.4 µM
COc1cccc(CNC(=O)C2=Cc3cccc(OC)c3OC2)c1	> 50 µM (inactive)

Structure (SMILES)	IC50
Cn1cc2cccc(NC(=O)c3ccc(F)cc3)c2n1	> 50 µM (inactive)
Cc1ccc2cccc(OCc3nnc(SCC(=O)c4ccc(Cl)cc4)n3C)c2n1	25.8 µM
FC(F)(F)c1cccc(Nc2nnc(-c3cccnc3)s2)c1	> 50 µM (inactive)
O=C(Nc1ccc2c(c1)OCCO2)C1CCN(C(=O)c2cc(-c3cccnc3)n[nH]2)CC1	> 50 µM (inactive)
CC(=O)Nc1ccc(NC(=O)c2cc(-c3cc(C)cc(C)c3O)n[nH]2)cc1	21.8 µM
O=S(c1ccc2ccccc2c1)c1cnns1 (stereo unspecified)	> 50 µM (inactive)
Cc1ccc(-c2noc(-c3nnc(SCC(=O)NC4CCCC4)n3C)n2)cc1	> 50 µM (inactive)
COc1cccc(NC(=O)C2Cn3ccnc3C3(CCN(C(C)=O)CC3)O2)c1 (stereo unspecified)	> 50 µM (inactive)
Cc1nc2sc(C(=O)Nc3ccccc3Br)c(N)c2c(C)c1C	15.5 µM
CCCCCCCCCC(CCCCCCCCCC(=O)O)O[C@H]1O[C@@H](COC(C)=O)[C@H](O)[C@@H](O)[C@H]1OC(=O)CC(=O)O (stereo partly specified)	22.5 µM
Cc1ccc(C)c(-n2c(C)cc(/C=C3/C(=N)N4C(c5ccc(F)cc5)=CSC4=NC3=O)c2C)c1	> 50 µM (inactive)
Cc1c(OCC(=O)NCC(=O)N2CCC3(O)CCCCC3C2)ccc2c3c(c(=O)oc12)CCCC3 (stereo unspecified)	> 50 µM (inactive)
COCCn1ccc2nc(C)c(C(=O)Nc3ccc4c(c3)OCCO4)cc2c1=O	> 50 µM (inactive)
Cc1ccccc1Cc1nc(-c2ccc(=O)[nH]c2)no1	> 50 µM (inactive)
N#Cc1cccnc1N1CCN(C(=O)Nc2cccc3ccccc23)CC1	> 50 µM (inactive)
COc1ccccc1C(=O)NCC(c1ccc2c(c1)CCCN2C)N1CCCC1 (stereo unspecified)	> 50 µM (inactive)
CCOc1ccc2c(c1)c(=O)c(C(=O)c1ccccc1)cn2CC(=O)Nc1ccccc1	19.4 µM
CNc1nc2c(c(=O)n1C)CN(C(=O)Nc1cccc3ccccc13)CC2	> 50 µM (inactive)
COc1ccc(CCC(=O)Nc2ccc3c(c2)Sc2ncccc2C(=O)N3C)cc1	> 50 µM (inactive)
O=C(NCc1ccc2c(c1)OCO2)c1ccc(C2SCC(=O)N2Cc2ccco2)cc1 (stereo unspecified)	> 50 µM (inactive)
CN(CCCNC(=O)c1cccc2c1SCCC2=O)c1ccccc1	> 50 µM (inactive)
COc1ccc(Cn2c(SCc3ccc(C(=O)NCCc4ccccc4)cc3)nc3ccncc32)cc1	> 50 µM (inactive)
CCNc1nc(SCC(C)=O)nc2sc3c(c12)CCC(C)C3 (stereo unspecified)	> 50 µM (inactive)
Cc1cc(/C=C2/C(=N)N3C(c4ccccc4)=CSC3=NC2=O)c(C)n1-c1ccc(F)cc1	> 50 µM (inactive)

Structure (SMILES)	IC50
CC(C)=CCC/C(C)=C/C[C@]1(O)C(=O)c2cc(O)cc(O)c2C(=O)[C@@]1(Cl)CC=C(C)C	> 50 µM (inactive)
COc1ccccc1Nc1ncc(C(=O)NCCc2ccc(Cl)cc2)c2ccccc12	21.2 µM
COc1ccc(NC(=O)COc2cc(CSc3ccccc3)ncc2OC)cc1	> 50 µM (inactive)
COc1ncccc1CN1CCn2c(Cn3cccn3)cnc2C1C (stereo unspecified)	> 50 µM (inactive)
CC1=C(C(=O)Nc2ccccc2C)C(c2ccc(OCc3ccccc3F)cc2)n2ncnc2N1 (stereo unspecified)	24 µM
O=C(Cc1ccccc1F)Nc1nc(-c2ccco2)c(-c2ccco2)s1	> 50 µM (inactive)
CN(C)S(=O)(=O)c1ccc(C(=O)Nc2c(C#N)oc3ccccc23)cc1	> 50 µM (inactive)
COc1ccc(OC)c(-c2cn3ccn(-c4ccc5c(c4)CCC5)c(=O)c3n2)c1	> 50 µM (inactive)
COc1ccc(C2CC(=O)Nc3n[nH]c(-c4ccccc4)c32)cc1OC (stereo unspecified)	> 50 µM (inactive)
Cc1ccc(NC(=O)c2cnc(N3CCOCC3)nc2)cc1F	> 50 µM (inactive)
COc1ccc(-c2[nH]c3ccccc3c2SCCNC(=O)c2ccc(S(=O)(=O)N3CCOCC3)cc2)cc1	> 50 µM (inactive)
Cc1ccc(-n2c(=O)c3ccccc3n(Cc3c(F)cccc3Cl)c2=O)cc1	> 50 µM (inactive)
NC(=O)C1(N2CCCCC2)CCN(C(=O)c2[nH]nc3c2CCc2ccccc2-3)CC1	> 50 µM (inactive)
CCCc1nc2sc3c(NCCN4CCOCC4)ncnc3c2c2c1CCC2	> 50 µM (inactive)
Fc1ccc(CN2CCc3nc4cccnc4cc3C2)cc1	> 50 µM (inactive)
CCc1ccc(NC(=O)COC(=O)c2n[nH]c3ccccc23)cc1	49.8 µM
Cc1ccc(S(=O)(=O)N2CCC3(CC2)NC(=O)c2ccccc2N3)cc1C	> 50 µM (inactive)
COc1ccc2[nH]cc(S(=O)(=O)c3ccc(C)c(F)c3)c(=O)c2c1	44.5 µM
Nc1ccccc1SCc1noc(-c2cccs2)n1	> 50 µM (inactive)
O=C(NCc1cccnc1)C1CCN(c2cnc(N3CCCCCC3)nc2)CC1	> 50 µM (inactive)
CC(C)Cc1cc(-c2nnc3sc(-c4ccco4)nn23)n[nH]1	> 50 µM (inactive)
CCC(C)c1ccc(O[C@@H]2O[C@@H]3COC(c4ccccc4)O[C@H]3[C@H](O)[C@H]2NC(C)=O)cc1 (stereo partly specified)	23.4 µM
CCn1cc(-c2cc(C(=O)Nc3cnn(Cc4cccc(F)c4)c3)c3ccccc3n2)cn1	> 50 µM (inactive)
O=C(Nc1cccc(F)c1)c1ncoc1-c1ccco1	> 50 µM (inactive)

Structure (SMILES)	IC50
CCOC(=O)c1sc2nc(CC(=O)OC)nc(NCc3ccco3)c2c1C	> 50 µM (inactive)
CC1(C)CC(n2[nH]c(=O)c3c2NC(=O)CSC3c2ccc(OCc3ccccc3)cc2)CCO1 (stereo unspecified)	22.4 µM
COc1cc(C)c2c(=O)c3c(oc2c1)C(=O)c1c(O)c(OC)cc(O)c1C3=O	2.76 µM
COc1cccc(NC(=O)C2Cc3ccccc3N2C(=O)c2ccccc2)c1 (stereo unspecified)	20.1 µM
O=C(NCc1ccc(-c2nc3cnccc3o2)cc1)c1cc2ccccc2o1	> 50 µM (inactive)
Cc1nn(-c2ccc(F)cc2)cc1-c1noc(C(=O)NCc2ccccn2)n1	25.1 µM
Cc1ccc2nc(NC(=O)CSc3nnc(-c4ccncc4)n3C3CC3)sc2c1	> 50 µM (inactive)
COc1ccc(OC)c(C2CC(=O)Nc3n[nH]c(-c4ccccc4)c32)c1 (stereo unspecified)	37.8 µM
O=C(/C=C/c1ccc(F)cc1)N1CCc2ccccc2C1	> 50 µM (inactive)
N#C/C(=C/c1sc(N2CCOCC2)nc1-c1ccccc1)c1ccccn1	> 50 µM (inactive)
CC(=O)N1CCCC(c2nc(C)cc(-c3cc(F)ccc3C(=O)O)n2)C1 (stereo unspecified)	> 50 µM (inactive)
O=[N+]([O-])c1ccc2c(c1)nc1n2CCN(Cc2ccco2)C1	> 50 µM (inactive)
Cc1ccc(C(=O)Nc2cc3c4c(c2)CC(=O)N4CCC3)cc1C	> 50 µM (inactive)
O=C(NCCn1ccc2ccccc21)c1cc2ccccc2oc1=O	> 50 µM (inactive)
O=C(Nc1ccc(F)cc1F)NC1CCN(c2ccccc2)C1=O (stereo unspecified)	32.9 µM
CCc1cc(C(=O)c2ccc(OC)cc2)c(NC(=O)CN2CCCCC2)s1	> 50 µM (inactive)
COc1ccc(Cl)cc1-n1nnc(C(=O)N2CCc3ccccc3C2)c1C	> 50 µM (inactive)
O=c1c(-c2nc(C3CC3)no2)cccn1Cc1c(F)cccc1Cl	> 50 µM (inactive)
Cc1ccc(NC(=O)Cc2nnc3c(-c4nc(C5CC5)no4)cccn23)cc1	31.3 µM
Cc1c2c(nc3ccccc13)-c1ccccc1CC2	> 50 µM (inactive)
CN1c2ccccc2CN(CC(N)=O)CC1Cc1ccccc1 (stereo unspecified)	> 50 µM (inactive)
O=C(CNS(=O)(=O)c1ccc(F)cc1)N1CCCC(c2nnc3ccccn23)C1 (stereo unspecified)	> 50 µM (inactive)
O=C(Nc1ccccc1)c1cn2c3c(cccc3c1=O)CC2	> 50 µM (inactive)
O=C(CSc1nnc(CNC(=O)c2ccccc2F)o1)Nc1ccc(OC(F)(F)F)cc1	29.6 µM
